# Structures can show the parent of a compound that is named as a salt.
# Molecular target: T1, Recombinant Human SSAO/VAP-1/AOC3 (Homo sapiens, UniProt Q16853)
# T1 construct: purchased R&D systems 3957-AO
# T1 sequence (Q16853 1-763): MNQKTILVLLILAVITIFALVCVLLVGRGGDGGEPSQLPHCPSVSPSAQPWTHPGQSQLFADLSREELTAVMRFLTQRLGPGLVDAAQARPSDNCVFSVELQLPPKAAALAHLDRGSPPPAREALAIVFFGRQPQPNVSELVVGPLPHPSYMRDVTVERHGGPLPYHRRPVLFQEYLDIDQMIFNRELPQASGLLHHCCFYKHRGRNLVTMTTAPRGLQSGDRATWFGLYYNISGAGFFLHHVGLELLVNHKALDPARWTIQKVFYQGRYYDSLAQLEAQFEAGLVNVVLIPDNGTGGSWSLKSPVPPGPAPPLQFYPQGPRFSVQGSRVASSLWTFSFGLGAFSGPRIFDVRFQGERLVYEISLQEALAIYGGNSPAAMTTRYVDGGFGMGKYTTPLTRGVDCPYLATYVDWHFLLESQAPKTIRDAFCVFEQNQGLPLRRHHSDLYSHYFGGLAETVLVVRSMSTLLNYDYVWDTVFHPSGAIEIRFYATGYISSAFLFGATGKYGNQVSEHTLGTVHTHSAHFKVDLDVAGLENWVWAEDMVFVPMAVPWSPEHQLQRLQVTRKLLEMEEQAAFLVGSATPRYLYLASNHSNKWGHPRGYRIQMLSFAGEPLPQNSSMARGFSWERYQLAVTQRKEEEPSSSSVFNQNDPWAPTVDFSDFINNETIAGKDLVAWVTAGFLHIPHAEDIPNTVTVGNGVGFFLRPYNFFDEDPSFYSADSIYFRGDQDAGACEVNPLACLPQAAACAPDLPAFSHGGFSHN
# Assay: Human Semicarbazide-Sensitive Amine Oxidase (SSAO) Assay
# Type: biochemical
# Conditions: recombinant enzyme, 30 minutes preincubation at 37° C., benzylamine substrate, Amplex Ultra Red/HRP fluorescence
# Outline: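 Recombinant human SSAO/VAP-1 (2.5 μg/ml working stock in 50 mM HEPES) preincubated with compound 30 min at 37 °C over a 6-10 point CRC. Benzylamine substrate starts the reaction. H2O2 read kinetically over 30-120 min via Amplex Ultra Red/HRP fluorescence (ex 544/em 590 nm) to derive IC50.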
row,Compound,IC50 [nM]
1,"NC/C(=C\F)COc1ccc(C23CCC(C(=O)NC4(C(F)(F)F)CCOCC4)(CC2)CC3)cc1 [Compound 2.152, (E)-4-(4-((2-(aminomethyl)-3-fluoroallyl)oxy)phenyl)-N-(4-(trifluoromethyl)tetrahydro-2H-pyran-4-yl)bicyclo[2.2.2]octane-1-carboxamide]",10 to 100
2,"CC1(C)CCC(NC(=O)C23CCC(c4ccc(OC/C(=C/F)CN)cc4)(CC2)CC3)CO1 (stereo not shown) [Compound 2.153, (E)-4-(4-((2-(aminomethyl)-3-fluoroallyl)oxy)phenyl)-N-(6,6-dimethyltetrahydro-2H-pyran-3-yl)bicyclo[2.2.2]octane-1-carboxamide]",≤ 10
3,"NC/C(=C\F)COc1ccc(C23CCC(C(=O)NC4CCOC5(CCC5)C4)(CC2)CC3)cc1 (stereo not shown) [Compound 2.154, (E)-4-(4-((2-(aminomethyl)-3-fluoroallyl)oxy)phenyl)-N-(5-oxaspiro[3.5]nonan-8-yl)bicyclo[2.2.2]octane-1-carboxamide]",≤ 10
4,"NC/C(=C\F)COc1ccc(C23CCC(C(=O)NCc4ccncn4)(CC2)CC3)cc1 [Compound 2.155, (E)-4-(4-((2-(aminomethyl)-3-fluoroallyl)oxy)phenyl)-N-(pyrimidin-4-ylmethyl)bicyclo[2.2.2]octane-1-carboxamide]",≤ 10
5,"N#CC1CCCC1NC(=O)C12CCC(c3ccc(OC/C(=C/F)CN)cc3)(CC1)CC2 (stereo not shown) [Compound 2.156, (E)-4-(4-((2-(aminomethyl)-3-fluoroallyl)oxy)phenyl)-N-(2-cyanocyclopentyl)bicyclo[2.2.2] octane-1-carboxamide]",≤ 10
6,"Cc1cncc(CNC(=O)C23CCC(c4ccc(OC/C(=C/F)CN)cc4)(CC2)CC3)n1 [Compound 2.157, (E)-4-(4-((2-(aminomethyl)-3-fluoroallyl)oxy)phenyl)-N-((6-methylpyrazin-2-yl)methyl)bicyclo[2.2.2]octane-1-carboxamide]",≤ 10
7,"Cc1cnc(CNC(=O)C23CCC(c4ccc(OC/C(=C/F)CN)cc4)(CC2)CC3)cn1 [Compound 2.158, (E)-4-(4-((2-(aminomethyl)-3-fluoroallyl)oxy)phenyl)-N-((5-methylpyrazin-2-yl)methyl)bicyclo[2.2.2]octane-1-carboxamide]",≤ 10
8,"NC/C(=C\F)COc1ccc(C23CCC(C(=O)NCc4cncc(C(F)(F)F)c4)(CC2)CC3)cc1 [Compound 2.159, (E)-4-(4-((2-(aminomethyl)-3-fluoroallyl)oxy)phenyl)-N-((5-(trifluoromethyl)pyridin-3-yl)methyl)bicyclo[2.2.2]octane-1-carboxamide]",≤ 10
9,"COc1cnc(CNC(=O)C23CCC(c4ccc(OC/C(=C/F)CN)cc4)(CC2)CC3)cn1 [Compound 2.160, (E)-4-(4-((2-(aminomethyl)-3-fluoroallyl)oxy)phenyl)-N-((5-methoxypyrazin-2-yl)methyl)bicyclo[2.2.2]octane-1-carboxamide]",≤ 10
10,"COc1cncc(CNC(=O)C23CCC(c4ccc(OC/C(=C/F)CN)cc4)(CC2)CC3)n1 [Compound 2.161, (E)-4-(4-((2-(aminomethyl)-3-fluoroallyl)oxy)phenyl)-N-((6-methoxypyrazin-2-yl)methyl)bicyclo[2.2.2]octane-1-carboxamide]",≤ 10
11,"NC/C(=C\F)COc1ccc(C23CC(C(=O)NC4CCOCC4)(C2)C3)cc1 [Compound 3, (E)-3-(4-((2-(aminomethyl)-3-fluoroallyl)oxy)phenyl)-N-(tetrahydro-2H-pyran-4-yl)bicyclo[1.1.1]pentane-1-carboxamide]",≤ 10
12,"CC1(C)CC(NC(=O)C23CC(c4ccc(OC/C(=C/F)CN)cc4)(C2)C3)CCO1 (stereo not shown) [Compound 3.01, (E)-3-(4-((2-(aminomethyl)-3-fluoroallyl)oxy)phenyl)-N-(2,2-dimethyltetrahydro-2H-pyran-4-yl)bicyclo[1.1.1]pentane-1-carboxamide]",≤ 10
13,"CC1(C)CC(NC(=O)C23CC(c4ccc(OC/C(=C/F)CN)cc4)(C2)C3)CC(C)(C)O1 [Compound 3.02, (E)-3-(4-((2-(aminomethyl)-3-fluoroallyl)oxy)phenyl)-N-(2,2,6,6-tetramethyltetrahydro-2H-pyran-4-yl)bicyclo[1.1.1]pentane-1-carboxamide]",≤ 10
14,"COCCNC(=O)C12CC(c3ccc(OC/C(=C/F)CN)cc3)(C1)C2 [Compound 3.03, (E)-3-(4-((2-(aminomethyl)-3-fluoroallyl)oxy)phenyl)-N-(2-methoxyethyl)bicyclo[1.1.1] pentane-1-carboxamide]",≤ 10
15,"CO[C@H]1C[C@@H](NC(=O)C23CC(c4ccc(OC/C(=C/F)CN)cc4)(C2)C3)C1 [Compound 3.05, 3-(4-(((E)-2-(aminomethyl)-3-fluoroallyl)oxy)phenyl)-N-((1r,3r)-3-methoxycyclobutyl)bicyclo [1.1.1]pentane-1-carboxamide]",≤ 10
16,"CNC(=O)C12CCC(c3ccc(OC/C(=C/F)CN)cc3)(CC1)C2 [Compound 4, (E)-4-(4-((2-(Aminomethyl)-3-fluoroallyl)oxy)phenyl)-N-methylbicyclo[2.2.1]heptane-1-carboxamide Hydrochloride]",≤ 10
17,"NC/C(=C\F)COc1ccc(C23CCC(C(=O)NC4CCOCC4)(CC2)C3)cc1 [Compound 4.01, (E)-4-(4-((2-(Aminomethyl)-3-fluoroallyl)oxy)phenyl)-N-(tetrahydro-2H-pyran-4-yl)bicyclo[2.2.1]heptane-1-carboxamide Hydrochloride]",≤ 10
18,"CNC(=O)C12CCCC(c3ccc(OC/C(=C/F)CN)cc3)(CC1)C2 (stereo not shown) [Compound 5, 5-(4-(((E)-2-(Aminomethyl)-3-fluoroallyl)oxy)phenyl)-N-methylbicyclo[3.2.1]octane-1-carboxamide Hydrochloride]",≤ 10
19,"NC/C(=C\F)COc1ccc(C23CCCC(C(=O)NC4CCOCC4)(CC2)C3)cc1 (stereo not shown) [Compound 5.01, 5-(4-(((E)-2-(Aminomethyl)-3-fluoroallyl)oxy)phenyl)-N-(tetrahydro-2H-pyran-4-yl)bicyclo[3.2.1]octane-1-carboxamide Hydrochloride]",≤ 10
20,"NC/C(=C\F)COc1ccc(C23CCC(NC(=O)C4CCOCC4)(CC2)CC3)cc1 [Compound 7, (E)-N-(4-(4-((2-(Aminomethyl)-3-fluoroallyl)oxy)phenyl)bicyclo[2.2.2]octan-1-yl)tetrahydro-2H-pyran-4-carboxamide Hydrochloride]",≤ 10
21,"CNC(=O)COC12CCC(c3ccc(OC/C(=C/F)CN)cc3)(CC1)CC2 [Compound 8, (E)-2-((4-(4-((2-(aminomethyl)-3-fluoroallyl)oxy)phenyl)bicyclo[2.2.2]octan-1-yl)oxy)-N-methylacetamide]",≤ 10

# Second part, the compound after the results:
row,IC50 [nM],Compound
1,≤ 10,"CC(C)NC(=O)C12CC3CC(C1)CC(c1ccc(OC/C(=C/F)CN)cc1)(C3)C2 [Compound 6.04, (E)-3-(4-((2-(aminomethyl)-3-fluoroallyl)oxy)phenyl)-N-isopropyladamantane-1-carboxamide]"
2,≤ 10,"NC/C(=C\F)COc1ccc(C23CCC(NC(=O)CCO)(CC2)CC3)cc1 [Compound 7.01, (E)-N-(4-(4-((2-(aminomethyl)-3-fluoroallyl)oxy)phenyl)bicyclo [2.2.2]octan-1-yl)-3-hydroxypropanamide]"
3,≤ 10,"COCCC(=O)NC12CCC(c3ccc(OC/C(=C/F)CN)cc3)(CC1)CC2 [Compound 7.02, (E)-N-(4-(4-((2-(aminomethyl)-3-fluoroallyl)oxy)phenyl)bicyclo [2.2.2]octan-1-yl)-3-methoxypropanamide]"
4,≤ 10,"NC/C(=C\F)COc1ccc(C23CCC(NS(=O)(=O)C4CC4)(CC2)CC3)cc1 [Compound 7.03, (E)-N-(4-(4-((2-(aminomethyl)-3-fluoroallyl)oxy)phenyl)bicyclo[2.2.2]octan-1-yl)cyclopropanesulfonamide]"
5,≤ 10,"NC/C(=C\F)COc1ccc(C23CCC(OCC(=O)NC4CCOCC4)(CC2)CC3)cc1 [Compound 8.01, (E)-2-((4-(4-((2-(aminomethyl)-3-fluoroallyl)oxy)phenyl)bicyclo [2.2.2]octan-1-yl)oxy)-N-(tetrahydro-2H-pyran-4-yl)acetamide]"
6,≤ 10,"NC/C(=C\F)COc1ccc(C23CCC(OCC(=O)N4CCOCC4)(CC2)CC3)cc1 [Compound 8.02, (E)-2-((4-(4-((2-(aminomethyl)-3-fluoroallyl)oxy)phenyl)bicyclo [2.2.2]octan-1-yl)oxy)-1-morpholinoethanone]"
7,≤ 10,"COCCOC12CCC(c3ccc(OC/C(=C/F)CN)cc3)(CC1)CC2 [Compound 8.03, (E)-3-Fluoro-2-((4-(4-(2-methoxyethoxy)bicyclo[2.2.2]octan-1-yl)phenoxy)methyl)prop-2-en-1-amine Hydrochloride]"

# From US20200181104A1, “SSAO INHIBITORS AND USES THEREOF” (METACRINE, INC., priority 2018, published 2020)
